For this test, the target named is T1, Kex2 (Saccharomyces cerevisiae, UniProt P13134).
T1 sequence (P13134 114-613 limits assumed): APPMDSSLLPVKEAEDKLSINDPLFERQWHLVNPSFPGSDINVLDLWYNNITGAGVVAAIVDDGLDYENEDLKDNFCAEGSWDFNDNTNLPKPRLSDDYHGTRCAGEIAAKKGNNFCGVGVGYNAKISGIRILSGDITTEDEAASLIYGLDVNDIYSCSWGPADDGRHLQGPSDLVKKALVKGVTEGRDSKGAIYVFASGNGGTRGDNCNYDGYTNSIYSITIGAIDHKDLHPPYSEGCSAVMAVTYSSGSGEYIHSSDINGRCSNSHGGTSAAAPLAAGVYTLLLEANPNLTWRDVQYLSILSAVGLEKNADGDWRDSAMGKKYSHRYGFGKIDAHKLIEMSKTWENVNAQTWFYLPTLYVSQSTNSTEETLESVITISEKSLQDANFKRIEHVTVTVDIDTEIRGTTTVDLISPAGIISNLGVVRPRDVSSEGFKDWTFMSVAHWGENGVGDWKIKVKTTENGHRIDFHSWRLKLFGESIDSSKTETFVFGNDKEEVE
The class given is biochemical, S. cerevisiae. The conditions noted are these: in the absence of Mg^2+.

On to Abz-LDKR↓EAE-Q-EDDnp, for which the “kcat/Km for hydrolysis by kex2” value was 353000 M⁻¹ s⁻¹.

With Abz-YKR↓EAD-Q-EDDnp, the “kcat/Km for hydrolysis by kex2” value stood at 7.939e+06 M⁻¹ s⁻¹.

(Values after PMC4821188 (Biological chemistry, 2010).)
